Reference: the kinase profiling compilation of Christmann-Franck et al. (2016)

Legend:
Experiment in all cases: KINOMEscan competition binding
Conditions in all cases: compound 10.0 µM
SIK3 (human) = SIK3 (human) (UniProt Q9Y2K2)
CAMK2B (human) = CAMK2B (human) (UniProt Q13554)
TNNI3K (human) = TNNI3K (human) (UniProt Q59H18)
EPHA7 (human) = EPHA7 (human) (UniProt Q15375)
AAK1 (human) = AAK1 (human) (UniProt Q2M2I8)
STK16 (human) = STK16 (human) (UniProt O75716)
PIP5K1A (human) = PIP5K1A (human) (UniProt Q99755)
PKMYT1 (human) = PKMYT1 (human) (UniProt Q99640)
Sequence of PKMYT1 (human) (Q99640 whole entry, looked up): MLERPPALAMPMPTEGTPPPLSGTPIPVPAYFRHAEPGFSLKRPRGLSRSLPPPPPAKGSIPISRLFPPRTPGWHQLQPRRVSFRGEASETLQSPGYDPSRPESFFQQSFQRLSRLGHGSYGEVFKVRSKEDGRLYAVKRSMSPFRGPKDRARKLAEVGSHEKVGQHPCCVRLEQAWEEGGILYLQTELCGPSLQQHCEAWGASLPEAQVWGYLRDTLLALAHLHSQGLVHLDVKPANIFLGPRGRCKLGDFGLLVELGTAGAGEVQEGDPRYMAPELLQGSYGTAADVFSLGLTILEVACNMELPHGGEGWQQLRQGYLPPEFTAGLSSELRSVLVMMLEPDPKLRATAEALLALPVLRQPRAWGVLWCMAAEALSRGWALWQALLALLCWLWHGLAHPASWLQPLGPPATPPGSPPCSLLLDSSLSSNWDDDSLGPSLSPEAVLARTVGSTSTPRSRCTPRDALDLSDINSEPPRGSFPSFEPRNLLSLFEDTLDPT

NEK6 (human) = NEK6 (human) (UniProt Q9HC98)
NEK5 (human) = NEK5 (human) (UniProt Q6P3R8)
AKT3 (human) = AKT3 (human) (UniProt Q9Y243)
MYO3B (human) = MYO3B (human) (UniProt Q8WXR4)
NIM1 (human) = NIM1 (human) (UniProt Q8IY84)
RPS6KB1 (human) = RPS6KB1 (human) (UniProt P23443)
PRKX (human) = PRKX (human) (UniProt P51817)
MAP3K7 (human) = MAP3K7 (human) (UniProt O43318)
TNK2 (human) = TNK2 (human) (UniProt Q07912)
STK32C (human) = STK32C (human) (UniProt Q86UX6)
Sequence of STK32C (human) (Q86UX6 whole entry, looked up): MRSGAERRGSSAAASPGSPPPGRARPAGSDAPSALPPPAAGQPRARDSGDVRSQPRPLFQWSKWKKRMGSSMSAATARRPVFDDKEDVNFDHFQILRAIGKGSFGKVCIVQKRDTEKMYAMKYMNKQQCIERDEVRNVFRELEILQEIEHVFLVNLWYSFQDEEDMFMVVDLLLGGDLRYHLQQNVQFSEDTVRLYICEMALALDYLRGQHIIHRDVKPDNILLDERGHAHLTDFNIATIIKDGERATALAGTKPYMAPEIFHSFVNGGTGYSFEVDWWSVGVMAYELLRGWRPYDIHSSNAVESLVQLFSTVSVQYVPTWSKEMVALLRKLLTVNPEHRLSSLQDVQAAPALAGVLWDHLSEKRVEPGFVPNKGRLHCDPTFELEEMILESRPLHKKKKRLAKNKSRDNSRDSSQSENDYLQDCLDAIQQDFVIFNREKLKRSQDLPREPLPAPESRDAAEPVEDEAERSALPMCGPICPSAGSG

NEK4 (human) = NEK4 (human) (UniProt P51957)
MAPK7 (human) = MAPK7 (human) (UniProt Q13164)
SGK110 (human) = SGK110 (human) (UniProt P0C264)
BTK (human) = BTK (human) (UniProt Q06187)
FES (human) = FES (human) (UniProt P07332)
PTK2 (human) = PTK2 (human) (UniProt Q05397)
PIK3CA (human) = PIK3CA (human) (UniProt P42336)
TYRO3 (human) = TYRO3 (human) (UniProt Q06418)
MAPK4 (human) = MAPK4 (human) (UniProt P31152)
EPHA2 (human) = EPHA2 (human) (UniProt P29317)
Sequence of EPHA2 (human) (P29317 whole entry, looked up): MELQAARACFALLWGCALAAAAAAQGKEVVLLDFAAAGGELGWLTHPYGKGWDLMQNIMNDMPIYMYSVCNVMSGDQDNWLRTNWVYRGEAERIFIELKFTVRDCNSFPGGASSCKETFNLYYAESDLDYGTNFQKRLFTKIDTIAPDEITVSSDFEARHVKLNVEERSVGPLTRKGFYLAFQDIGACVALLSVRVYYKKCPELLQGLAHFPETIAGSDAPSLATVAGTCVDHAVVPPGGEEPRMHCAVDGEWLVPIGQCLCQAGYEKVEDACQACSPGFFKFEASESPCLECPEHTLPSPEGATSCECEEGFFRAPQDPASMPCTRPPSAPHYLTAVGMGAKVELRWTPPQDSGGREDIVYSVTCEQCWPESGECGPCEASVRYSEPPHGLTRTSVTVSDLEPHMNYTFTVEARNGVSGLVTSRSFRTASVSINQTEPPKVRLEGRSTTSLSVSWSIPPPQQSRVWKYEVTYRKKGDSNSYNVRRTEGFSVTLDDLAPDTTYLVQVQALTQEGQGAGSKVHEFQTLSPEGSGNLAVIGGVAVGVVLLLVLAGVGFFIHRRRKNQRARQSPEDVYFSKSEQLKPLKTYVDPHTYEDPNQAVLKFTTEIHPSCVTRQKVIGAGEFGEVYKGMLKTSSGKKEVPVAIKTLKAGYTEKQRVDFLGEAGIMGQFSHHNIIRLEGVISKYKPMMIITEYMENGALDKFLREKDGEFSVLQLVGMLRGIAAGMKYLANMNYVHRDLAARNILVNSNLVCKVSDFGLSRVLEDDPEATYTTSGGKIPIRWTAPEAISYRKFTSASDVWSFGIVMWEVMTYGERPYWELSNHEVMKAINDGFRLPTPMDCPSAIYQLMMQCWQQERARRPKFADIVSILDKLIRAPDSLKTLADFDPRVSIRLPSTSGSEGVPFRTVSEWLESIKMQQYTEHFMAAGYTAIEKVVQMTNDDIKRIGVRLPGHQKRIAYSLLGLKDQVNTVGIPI

RIOK3 (human) = RIOK3 (human) (UniProt O14730)
ABL2 (human) = ABL2 (human) (UniProt P42684)
PLK1 (human) = PLK1 (human) (UniProt P53350)
ROS1 (human) = ROS1 (human) (UniProt P08922)
MAP3K4 (human) = MAP3K4 (human) (UniProt Q9Y6R4)
STK11 (human) = STK11 (human) (UniProt Q15831)
Sequence of STK11 (human) (Q15831 whole entry, looked up): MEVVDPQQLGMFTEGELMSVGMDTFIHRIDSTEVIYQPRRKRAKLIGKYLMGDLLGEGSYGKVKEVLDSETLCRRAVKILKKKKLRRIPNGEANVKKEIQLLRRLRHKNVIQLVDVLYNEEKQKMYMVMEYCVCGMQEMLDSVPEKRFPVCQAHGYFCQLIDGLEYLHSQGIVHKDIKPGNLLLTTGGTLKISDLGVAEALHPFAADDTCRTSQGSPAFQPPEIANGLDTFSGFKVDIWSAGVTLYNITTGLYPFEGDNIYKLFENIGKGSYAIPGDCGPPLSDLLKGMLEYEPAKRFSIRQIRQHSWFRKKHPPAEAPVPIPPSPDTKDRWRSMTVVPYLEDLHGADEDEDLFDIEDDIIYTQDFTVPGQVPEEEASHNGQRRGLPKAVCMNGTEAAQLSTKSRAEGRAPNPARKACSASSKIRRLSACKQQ

PRKG2 (human) = PRKG2 (human) (UniProt Q13237)
Sequence of PRKG2 (human) (Q13237 whole entry, looked up): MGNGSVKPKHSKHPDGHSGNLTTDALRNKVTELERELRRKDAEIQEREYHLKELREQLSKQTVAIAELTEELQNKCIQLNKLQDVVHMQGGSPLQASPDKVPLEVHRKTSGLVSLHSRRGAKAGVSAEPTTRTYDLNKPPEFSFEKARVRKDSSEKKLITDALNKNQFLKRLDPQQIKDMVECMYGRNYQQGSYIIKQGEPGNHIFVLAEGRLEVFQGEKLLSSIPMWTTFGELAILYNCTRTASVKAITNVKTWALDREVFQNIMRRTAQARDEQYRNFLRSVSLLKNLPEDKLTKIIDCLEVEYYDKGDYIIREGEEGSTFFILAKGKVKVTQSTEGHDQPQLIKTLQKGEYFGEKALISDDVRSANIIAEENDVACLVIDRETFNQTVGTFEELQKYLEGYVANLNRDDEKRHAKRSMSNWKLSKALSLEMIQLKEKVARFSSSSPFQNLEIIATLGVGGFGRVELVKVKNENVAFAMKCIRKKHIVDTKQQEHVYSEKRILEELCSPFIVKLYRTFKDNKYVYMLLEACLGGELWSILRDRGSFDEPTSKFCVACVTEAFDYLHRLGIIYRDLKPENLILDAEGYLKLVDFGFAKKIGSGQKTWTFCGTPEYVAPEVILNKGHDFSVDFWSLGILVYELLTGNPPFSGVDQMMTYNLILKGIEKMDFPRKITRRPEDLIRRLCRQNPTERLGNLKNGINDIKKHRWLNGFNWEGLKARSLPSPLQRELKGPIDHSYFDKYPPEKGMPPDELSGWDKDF

[1] = system: ABL1 (human), P00519 [Y253F]
FYN (human) = FYN (human) (UniProt P06241)
Sequence of FYN (human) (P06241 whole entry, looked up): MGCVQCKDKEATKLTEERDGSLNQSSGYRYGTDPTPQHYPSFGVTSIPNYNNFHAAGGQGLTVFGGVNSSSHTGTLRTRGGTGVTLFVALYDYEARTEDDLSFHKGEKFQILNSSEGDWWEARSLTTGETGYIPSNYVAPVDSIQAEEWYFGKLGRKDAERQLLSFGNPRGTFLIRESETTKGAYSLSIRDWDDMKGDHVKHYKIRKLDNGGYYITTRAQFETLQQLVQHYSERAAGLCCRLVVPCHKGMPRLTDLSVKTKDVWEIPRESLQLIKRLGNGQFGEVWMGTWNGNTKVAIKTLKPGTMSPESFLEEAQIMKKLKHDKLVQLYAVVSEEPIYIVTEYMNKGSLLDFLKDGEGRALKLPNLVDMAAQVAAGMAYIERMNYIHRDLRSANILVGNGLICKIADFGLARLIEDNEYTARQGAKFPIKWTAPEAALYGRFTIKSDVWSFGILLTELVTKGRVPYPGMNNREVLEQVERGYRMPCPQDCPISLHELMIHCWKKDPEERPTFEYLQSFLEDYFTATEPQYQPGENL

MYLK3 (human) = MYLK3 (human) (UniProt Q32MK0)
PDGFRB (human) = PDGFRB (human) (UniProt P09619)
STK17A (human) = STK17A (human) (UniProt Q9UEE5)
FRK (human) = FRK (human) (UniProt P42685)

Sequence of SIK3 (human) (Q9Y2K2 whole entry, looked up): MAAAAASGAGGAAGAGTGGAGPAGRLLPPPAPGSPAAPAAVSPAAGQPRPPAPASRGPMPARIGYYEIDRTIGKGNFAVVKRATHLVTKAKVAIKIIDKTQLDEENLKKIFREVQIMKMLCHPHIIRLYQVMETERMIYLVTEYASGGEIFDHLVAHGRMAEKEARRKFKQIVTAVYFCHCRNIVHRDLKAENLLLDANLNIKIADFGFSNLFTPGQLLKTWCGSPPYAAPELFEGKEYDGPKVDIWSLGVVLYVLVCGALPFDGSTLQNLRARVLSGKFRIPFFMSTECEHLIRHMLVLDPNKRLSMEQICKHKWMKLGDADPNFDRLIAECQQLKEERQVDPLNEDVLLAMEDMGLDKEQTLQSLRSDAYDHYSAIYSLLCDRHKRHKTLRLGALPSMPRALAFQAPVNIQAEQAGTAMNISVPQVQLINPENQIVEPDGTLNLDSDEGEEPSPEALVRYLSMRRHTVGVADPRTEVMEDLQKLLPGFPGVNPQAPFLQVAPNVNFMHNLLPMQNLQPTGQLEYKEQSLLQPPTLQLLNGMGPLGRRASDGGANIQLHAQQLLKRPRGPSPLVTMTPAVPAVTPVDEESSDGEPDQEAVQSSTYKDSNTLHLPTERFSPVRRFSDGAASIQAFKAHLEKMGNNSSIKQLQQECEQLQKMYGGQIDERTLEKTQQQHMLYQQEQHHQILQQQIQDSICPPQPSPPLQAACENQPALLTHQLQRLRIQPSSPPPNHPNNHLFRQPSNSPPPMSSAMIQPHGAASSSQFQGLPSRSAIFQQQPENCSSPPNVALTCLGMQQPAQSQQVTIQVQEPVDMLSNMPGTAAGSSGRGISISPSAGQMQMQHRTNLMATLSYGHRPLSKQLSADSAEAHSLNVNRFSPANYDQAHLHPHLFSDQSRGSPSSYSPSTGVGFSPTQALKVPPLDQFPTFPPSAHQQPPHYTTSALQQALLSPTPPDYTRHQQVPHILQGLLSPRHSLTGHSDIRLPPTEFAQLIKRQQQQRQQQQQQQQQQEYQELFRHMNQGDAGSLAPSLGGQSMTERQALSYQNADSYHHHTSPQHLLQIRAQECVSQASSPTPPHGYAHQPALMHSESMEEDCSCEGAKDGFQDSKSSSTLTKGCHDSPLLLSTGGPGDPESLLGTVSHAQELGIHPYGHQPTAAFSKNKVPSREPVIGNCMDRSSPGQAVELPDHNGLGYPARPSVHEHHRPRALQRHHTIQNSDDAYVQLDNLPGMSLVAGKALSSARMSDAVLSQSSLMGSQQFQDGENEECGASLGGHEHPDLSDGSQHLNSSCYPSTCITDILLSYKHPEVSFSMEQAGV

With `CCN1CCN(C(=O)Cc2ccc(Nc3ncc(F)c(Nc4ccc(C(=O)Nc5ccccc5Cl)cc4)n3)cc2)CC1` the kinase still bound, per cent of control (SIK3 (human)) was 68%, the kinase still bound, per cent of control (CAMK2B (human)) was 72% and the kinase still bound, per cent of control (TNNI3K (human)) was 24%. The kinase still bound, per cent of control (EPHA7 (human)) was 55%, the kinase still bound, per cent of control (AAK1 (human)) was 7% and the kinase still bound, per cent of control (STK16 (human)) was 1.6%. It also gave a kinase still bound, per cent of control (PIP5K1A (human)) of 0%, a kinase still bound, per cent of control (PKMYT1 (human)) of 100% and a kinase still bound, per cent of control (NEK6 (human)) of 8.4%. For the same molecule, the kinase still bound, per cent of control (NEK5 (human)) was 7.9%, the kinase still bound, per cent of control (AKT3 (human)) was 100% and the kinase still bound, per cent of control (MYO3B (human)) was 100%. The kinase still bound, per cent of control (NIM1 (human)) was 79%, the kinase still bound, per cent of control (RPS6KB1 (human)) was 39% and the kinase still bound, per cent of control (PRKX (human)) was 76%. It also gave a kinase still bound, per cent of control (MAP3K7 (human)) of 2.9%, a kinase still bound, per cent of control (TNK2 (human)) of 10% and a kinase still bound, per cent of control (STK32C (human)) of 77%. For the same molecule, the kinase still bound, per cent of control (NEK4 (human)) was 63%, the kinase still bound, per cent of control (MAPK7 (human)) was 100% and the kinase still bound, per cent of control (SGK110 (human)) was 40%. For the same molecule, the kinase still bound, per cent of control (BTK (human)) was 27%, the kinase still bound, per cent of control (FES (human)) was 48% and the kinase still bound, per cent of control (PTK2 (human)) was 28%. The kinase still bound, per cent of control (PIK3CA (human)) was 83%, the kinase still bound, per cent of control (TYRO3 (human)) was 79% and the kinase still bound, per cent of control (MAPK4 (human)) was 82%. The kinase still bound, per cent of control (EPHA2 (human)) was 51%, the kinase still bound, per cent of control (RIOK3 (human)) was 0.2% and the kinase still bound, per cent of control (ABL2 (human)) was 20%. For the same molecule, the kinase still bound, per cent of control (PLK1 (human)) was 94%, the kinase still bound, per cent of control (ROS1 (human)) was 34% and the kinase still bound, per cent of control (MAP3K4 (human)) was 83%. For the same molecule, the kinase still bound, per cent of control (STK11 (human)) was 12%, the kinase still bound, per cent of control (PRKG2 (human)) was 62% and the kinase still bound, per cent of control [1] was 16%. For the same molecule, the kinase still bound, per cent of control (FYN (human)) was 41%, the kinase still bound, per cent of control (MYLK3 (human)) was 100% and the kinase still bound, per cent of control (PDGFRB (human)) was 0.15%. For the same molecule, the kinase still bound, per cent of control (STK17A (human)) was 2.6% and the kinase still bound, per cent of control (FRK (human)) was 28%.

For `C=CC(=O)Nc1cc(-n2c(=O)ccc3cnc4ccc(-c5cn[nH]c5)cc4c32)ccc1C`, the kinase still bound, per cent of control (SIK3 (human)) was 78%, the kinase still bound, per cent of control (CAMK2B (human)) was 44% and the kinase still bound, per cent of control (TNNI3K (human)) was 100%. For the same molecule, the kinase still bound, per cent of control (EPHA7 (human)) was 99%, the kinase still bound, per cent of control (AAK1 (human)) was 18% and the kinase still bound, per cent of control (STK16 (human)) was 52%. For the same molecule, the kinase still bound, per cent of control (PIP5K1A (human)) was 44%, the kinase still bound, per cent of control (PKMYT1 (human)) was 81% and the kinase still bound, per cent of control (NEK6 (human)) was 92%. It also gave a kinase still bound, per cent of control (NEK5 (human)) of 100%, a kinase still bound, per cent of control (AKT3 (human)) of 100% and a kinase still bound, per cent of control (MYO3B (human)) of 100%. It also gave a kinase still bound, per cent of control (NIM1 (human)) of 89%, a kinase still bound, per cent of control (RPS6KB1 (human)) of 63% and a kinase still bound, per cent of control (PRKX (human)) of 100%. For the same molecule, the kinase still bound, per cent of control (MAP3K7 (human)) was 0.35%, the kinase still bound, per cent of control (TNK2 (human)) was 100% and the kinase still bound, per cent of control (STK32C (human)) was 100%. It also gave a kinase still bound, per cent of control (NEK4 (human)) of 83%, a kinase still bound, per cent of control (MAPK7 (human)) of 98% and a kinase still bound, per cent of control (SGK110 (human)) of 100%. The kinase still bound, per cent of control (BTK (human)) was 0.2%, the kinase still bound, per cent of control (FES (human)) was 100% and the kinase still bound, per cent of control (PTK2 (human)) was 96%. For the same molecule, the kinase still bound, per cent of control (PIK3CA (human)) was 24%, the kinase still bound, per cent of control (TYRO3 (human)) was 100% and the kinase still bound, per cent of control (MAPK4 (human)) was 100%. The kinase still bound, per cent of control (EPHA2 (human)) was 85%, the kinase still bound, per cent of control (RIOK3 (human)) was 31% and the kinase still bound, per cent of control (ABL2 (human)) was 86%. The kinase still bound, per cent of control (PLK1 (human)) was 80%, the kinase still bound, per cent of control (ROS1 (human)) was 100% and the kinase still bound, per cent of control (MAP3K4 (human)) was 100%. It also gave a kinase still bound, per cent of control (STK11 (human)) of 100%, a kinase still bound, per cent of control (PRKG2 (human)) of 78% and a kinase still bound, per cent of control [1] of 71%. The kinase still bound, per cent of control (FYN (human)) was 90%, the kinase still bound, per cent of control (MYLK3 (human)) was 100% and the kinase still bound, per cent of control (PDGFRB (human)) was 5.6%. For the same molecule, the kinase still bound, per cent of control (STK17A (human)) was 100% and the kinase still bound, per cent of control (FRK (human)) was 99%.
